{"source": "patent US20240147991A1", "about": "“Diphenyl Tablets and Methods of Preparing the Same” (Ideaz, LLC, priority 2018, published 2024)", "experiment": "Evaluation of sublimation of diphenyl tablets versus granules exposed to air", "format": "physicochemical", "conditions": "22 days; 1.06 grams substance at start; empty tray 1 3.715 grams (tablets), empty tray 2 3.650 grams (granules)", "text": "Two trays were fashioned from equal sized sheets of aluminum foil and tape. The trays were each weighed after fashioning, with tray 1 weighing 3.715 grams and tray 2 weighing 3.650 grams (a weight difference between trays of 0.065 grams). Two compressed diphenyl tablets handled with tweezers were first weighed at a total weight of 1.06 grams and then placed into tray 1. An equal amount of diphenyl granules (i.e., having a total weight of 1.06 grams) was spooned into tray 2.\nBoth trays were exposed to air over 22 days and re-weighed. Tray 1 weighed 4.45 grams and tray 2 weighed 3.99 grams. After adjusting the weight difference of the trays by subtracting 0.065 grams from tray 1, it can be seen that the diphenyl tablets sublimed at a slower rate than the diphenyl granules by retaining 8.88 weight % more than the granules after being exposed to air for 22 days.", "data": [{"smiles": "c1ccc(-c2ccccc2)cc1", "note": "[diphenyl granules, diphenyl]", "values": [{"measurement": "Weight of tray with substance after exposure to air", "result": 3.99, "unit": "grams"}]}]}
